Source: US12239617B2, “Mono- and di-amidine endo-exonuclease inhibitors and methods for inhibiting endo-exonuclease activity” (MONTDOREX INC., priority 2017, dated 2025)

Experiments:
[1] = tested on: Endo/exonuclease in Pneumocystis carinii; settings: cited from earlier work
human endo-exonuclease = test: Endo-exonuclease inhibition assay (digestion of circular plasmid DNA, agarose gel); assay type: biochemical
Protocol: The human endo-exonuclease was isolated according to the method described by Liu and Chow et al (1995). The cultured cells were detached with trypsin-EDTA and the cell suspensions were centrifuged at 4° C. with a force of 700 g for 10 minutes. The cell pellets were washed twice with cold phosphate buffered saline (PBS). The cells were then resuspended and sonicated in 20 mM Tris-HCl, pH 7.5, containing 5 mM EDTA and 1 mM PMSF (buffer A). The resulting cell lysis suspensions were centrifuged at 4° C. at 10,000 g for 15 min. The supernatants were then loaded onto an antibody-protein A-Sepharose affinity column, as previously described by Chow and Resnick (1987). After washing extensively with buffer A (i.e. until the A280 of the eluates were zero), the column was then eluted with buffer A containing 3.5 M MgCl2 to elute the endo-exonuclease. The eluted endo-exonuclease was dialyzed extensively against buffer A with at least two changes of buffer and one change of distilled water. The endo-exonuclease was then concentrated by lyophilization.
The endo-exonuclease activities were determined by measuring the digestion of circular plasmid DNA following the exemplary set of steps. Superhelical pBR322 DNA (or YEp DNA) was treated with endo-exonuclease at 37° C. Reactions were stopped by the addition of a solution containing 5 mM EDTA, 1% SDS, 30% glycerol, and bromophenol blue. The resulting mixtures were then loaded onto a 0.7% agarose gel and electrophoresed for 3 hours at 70 V. The gels were stained with 100 ml of 0.5 μg/ml ethidium bromide solution. Endo-exonuclease activities were measured as the rate of conversion from RFI to RFII to RFIII and subsequent fragments.
For the inhibition assay, pentamidine, mono-amidine compounds according to the present teachings and di-amidine compounds according to the present teachings were added to the endo-exonuclease prior to the start of the nuclease reaction. In order to arrive at the measurements related to the % of cell growth of H661, the MTT assay as described above was performed. The resulting endo-exonuclease inhibition is shown in the Table 1 and Table 2 that follow: […]

[2] = tested on: MCF7 Breast Cancer Cell Line; test: MTT assay on MCF7 Breast Cancer Cell Line; assay type: cell-based, human
Protocol: (§1) Cell lines from human colon adenocarcinoma (HT29), human breast adenocarcinoma (MCF7) and human cervical epithelioid carcinoma (HeLa) were obtained from the American Type Culture Collection (ATCC) and have ATCC accession numbers HTB-38, HTB-22, and CCL-2 respectively. The normal primary cell, NHDF, was obtained from Dr. Shirley Lehnert. These cells are normal human skin fibroblasts. The cells were grown in RPMI media supplemented with 10% FCS at 37° C. in a humidified incubator with 5% CO2.
(§2) Cell Survival—MTT assay: The MTT (3-[4,5-Dimethylthiazol-2-yl]-2,5 diphenyl tertrazolim bromide) method of determining cell growth/cytotoxicity is used to determine cell survival. MIT is a tetrazolium salt cleaved by mitochondrial dehydrogenases of living cells. Cleavage converts yellow, water soluble MTT to an insoluble, purple formazan crystal. The crystals can be solubilized with a 50% N,N-dimethylformamide (vol/vol), 20% SDS (wt/vol) solution (pH4.7), and absorbance determined at a wavelength of 570 nm. Dead cells will not cleave MTT and uncleaved MTT is not detectable at this wavelength. The amount of MTT that is cleaved increases with increasing cell numbers, and decreases as a result of cell cytotoxicity (Niks and Otto 1990, Hussain et al. 1993). Cells were harvested from cell cultures using a standard protocol (i.e. Trypsin/EDTA). The cells (1000 to 5000 cells depending on cell type in 50 μl) were then plated and incubated overnight at 37° C. The compound (e.g. the compound of formula (I); compound of formula (II); pentamidine; or the vehicle) was introduced. After 2 days of incubation at 37° C., 10 μl of a 5 mg/ml solution of MTT was then added to all the experimental wells as well as the media control well. The plates were further incubated for 4 hours. MTT solubilization buffer (100 μl) was then added and the plates were incubated overnight at 37° C. The plates were then read on an ELISA plate reader with absorbance at 570 nm and a reference at 630 nm.
(§3) Iniparib, Veliparib and Olaparib were also subjected to the MTT assay without an endo-exonuclease compound as controls.

[3] = tested on: HT29 Colon Cancer Cell Line; test: MTT assay on HT29 Colon Cancer Cell Line; assay type: cell-based, human
Protocol: as §1, §2, §3

Lewis Lung cancer cells = test: Lewis Lung cancer secondary lung tumours in mice after removal of the primary tumour; assay type: in vivo; settings: treated after surgical removal of primary tumour
Protocol: Lewis Lung cancer cells are injected subcutaneously into standard laboratory mice […]. Thereafter, they rapidly formed solid tumours. The sizes of the tumours can be measured. Although the injected cells are derived from lung cancers, the tumours actually grow in the back of the mice. All animals were inoculated at the same site. Primary tumours were allowed to grow until they were 0.5-1.0 cm^3 in size. At this point, cells from the tumours start circulating in the blood streams of the mice. These circulating cells have the capacity to form secondary tumours in the lung. The primary tumours are removed surgically from the mice. The mice are then treated with the amidine compounds so as to try and control the growth of secondary tumours. The extent to which control has been achieved is measured by sacrificing the mice and by physically counting the new tumours that can be seen growing on the surfaces of the lungs.

[4] = tested on: H460 Lung Carcinoma Cell Line; test: MTT assay on H460 Lung Carcinoma Cell Line; assay type: cell-based
Excerpt: as §2, §3

H661 (Lung Cancer Cell) = test: MTT assay, cell growth of H661 lung cancer cell; assay type: cell-based
Excerpt: as §2, with “4 hours. […] The plates” for “4 hours. MTT solubilization buffer (100 μl) was then added and the plates were incubated overnight at 37° C. The plates”, “630 nm. […]” for “630 nm.”

[5] = cited from earlier work
[6] = Homo sapiens, PARP inhibitor alone: Iniparib 42 μM, Veliparib 50 μM, Olaparib 73 μM
[7] = Homo sapiens, HT-29, PARP inhibitor alone: Iniparib 42 μM, Veliparib 50 μM, Olaparib 73 μM
[8] = Homo sapiens, NCI-H460, PARP inhibitor alone: Iniparib 42 μM, Veliparib 50 μM, Olaparib 73 μM

Compound: N=C(NC1CC1)c1ccc(-c2ccc(-c3ccc(C(=N)NC4CC4)cc3)o2)cc1 [2,5-bis [4-N-(cyclopropylguanyl)phenyl] furan]
- nuclease inhibition activity in P. carinii [1]: showed nuclease inhibition activity

Compound: c1cc(-c2ccc(-c3ccc(C4=NCCCN4)cc3)o2)ccc1C1=NCCCN1 [2,5-bis-p[3,4,5,6-tetrahydropyrimidyl)phenyl]furan]
- nuclease inhibition activity in P. carinii [1]: showed nuclease inhibition activity

Compound: CC(C)NC(=N)c1ccc(-c2ccc(-c3ccc(C(=N)NC(C)C)cc3)o2)cc1 [2,5-bis[4-(N-isopropylguanyl)phenyl]furan]
- nuclease inhibition activity in P. carinii [1]: inhibits endo-exonuclease activity

Compound: CC(C)CNC(=N)c1ccc(-c2ccc(-c3ccc(C(=N)NCC(C)C)cc3)o2)cc1 [2,5-bis[4-N-isobutylguanyl)phenyl]furan]
- nuclease inhibition activity in P. carinii [1]: showed nuclease inhibition activity

Compound: N=C(NCC1CC1)c1ccc(-c2ccc(-c3ccc(C(=N)NCC4CC4)cc3)o2)cc1 [2,5-bis[4-[(N-cyclopropylmethylguanyl)phenyl]furan]
- nuclease inhibition activity in P. carinii [1]: showed nuclease inhibition activity

Compound: N=C(N)c1ccc(-c2ccc(-c3ccc(C(=N)N)cc3)o2)cc1 [2,5-bis[4-guanylphenyl]furan]
- nuclease inhibition activity in P. carinii [1]: showed nuclease inhibition activity

Compound: N=C(NC1CCC1)c1ccc(-c2ccc(-c3ccc(C(=N)NC4CCC4)cc3)o2)cc1 [2,5-bis[(4-N-cyclobutylgunayl)phenyl]furan]
- nuclease inhibition activity in P. carinii [1]: showed nuclease inhibition activity

Compound: N=C(NC1CCCC1)c1ccc(-c2ccc(-c3ccc(C(=N)NC4CCCC4)cc3)o2)cc1 [2,5-bis[(4-N-cyclopentylguanyl)phenyl]furan]
- nuclease inhibition activity in P. carinii [1]: showed nuclease inhibition activity

Compound: N=C(Nc1ccccc1)c1ccc(OCCCCCOc2ccc(C(=N)Nc3ccccc3)cc2)cc1 [Di-Amidine A]
- IC50 (human endo-exonuclease): 58 µM
- % Inhibition ([2]; MTDX101 33 μM alone): 20%
- % Inhibition ([2]; MTDX101 336 μM alone): 80%
- % Inhibition ([3]; MTDX101 33 μM alone): 15%
- % Inhibition ([3]; MTDX101 336 μM alone): 64%
- Lung Cysts remaining (% of Control) (Lewis Lung cancer cells): 1.7 % of Control
- % Inhibition ([4]; MTDX101 33 μM alone): 25%
- % Inhibition ([4]; MTDX101 336 μM alone): 85%

Compound: CC(C)NC(=N)c1ccc(OCCCCCOc2ccc(C(=N)NC(C)C)cc2)cc1 [Di-Amidine B]
- IC50 (human endo-exonuclease): 14 µM
- Lung Cysts remaining (% of Control) (Lewis Lung cancer cells): 0.22 % of Control

Compound: NC(=O)c1ccc(I)c([N+](=O)[O-])c1 [Iniparib]
- inhibition at 42 µM [2, 6]: 5%
- inhibition at 42 µM [3, 7]: 4.8%
- inhibition at 42 µM [4, 8]: 0.8%

Compound: O=C(c1cc(Cc2n[nH]c(=O)c3ccccc23)ccc1F)N1CCN(C(=O)C2CC2)CC1 [Olaparib]
- inhibition at 73 µM [2, 6]: 17%
- inhibition at 73 µM [3, 7]: 14%
- inhibition at 73 µM [4, 8]: 11%

Compound: N=C(N)c1ccc(OCCCCCOc2ccc(C(=N)N)cc2)cc1 [Pentamidine, pentamidine]
- IC50 (human endo-exonuclease): 50 µM
- Endo-exonuclease Inhibition at 50 μM (%) (human endo-exonuclease; 50 μM): 50%
- H661 (Lung Cancer Cell) (% of Cell Growth at 2.5 μM) (H661 (Lung Cancer Cell); 2.5 μM, negative value = cell killing): 20 ± 2%
- death of the cancer cells (H661) (H661 (Lung Cancer Cell); Table 1): Death of the cancer cells was not observed
- Lung Cysts remaining (% of Control) (Lewis Lung cancer cells): 4.5 % of Control
- safety for patients ([5]; 4 mg/kg to 7 mg/kg for two days every two weeks): safe for patients
- toxicity (known clinical data) ([5]; human, in vivo): low toxicity

Compound: C[C@]1(c2nc3c(C(N)=O)cccc3[nH]2)CCCN1 [Veliparib]
- inhibition at 50 µM [2, 6]: 13%
- inhibition at 50 µM [3, 7]: 6%
- inhibition at 50 µM [4, 8]: 19%
